Paper PMC2902569 (Nature biotechnology, 2010)

Target: T1, Met30 (Saccharomyces cerevisiae, UniProt P39014)
T1 sequence (P39014 1-640): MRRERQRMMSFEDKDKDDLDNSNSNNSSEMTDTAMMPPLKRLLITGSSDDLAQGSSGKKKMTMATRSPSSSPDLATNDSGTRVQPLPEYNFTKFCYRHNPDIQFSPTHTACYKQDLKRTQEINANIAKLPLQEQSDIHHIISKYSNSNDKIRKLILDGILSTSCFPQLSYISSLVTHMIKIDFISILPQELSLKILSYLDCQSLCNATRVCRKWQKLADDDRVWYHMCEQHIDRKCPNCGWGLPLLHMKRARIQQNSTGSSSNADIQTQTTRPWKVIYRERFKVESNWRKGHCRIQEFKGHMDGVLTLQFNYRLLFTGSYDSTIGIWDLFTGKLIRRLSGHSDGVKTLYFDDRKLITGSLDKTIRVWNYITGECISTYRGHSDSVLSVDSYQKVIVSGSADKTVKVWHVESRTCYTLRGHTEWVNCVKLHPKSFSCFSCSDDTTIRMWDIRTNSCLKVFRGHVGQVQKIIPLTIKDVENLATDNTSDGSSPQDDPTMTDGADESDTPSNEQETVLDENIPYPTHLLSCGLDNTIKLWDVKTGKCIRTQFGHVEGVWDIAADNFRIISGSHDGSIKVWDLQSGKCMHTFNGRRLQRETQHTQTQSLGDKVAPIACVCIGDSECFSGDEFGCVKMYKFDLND
Assay: DARTS, thermolysin or subtilisin protection, immunoblot
Assay type: biochemical
Settings: yeast lysate (Skp1 present); also in vitro translated Met30

O=C1c2ccccc2-c2nc3nonc3nc21 [SMER3]
DARTS, thermolysin or subtilisin protection, immunoblot: we observed SMER3-dependent protection of Met30
